The source made the active and inactive calls. How the calls were made is not given here.
Biological target: methionyl-tRNA synthetase (Trypanosoma brucei brucei)
Assay: inhibition of trypanosome methionyl-tRNA synthetase – biochemical, luminescence, dose response, late-stage follow-up (AID 686967)
Conditions: recombinant T. brucei MetRS, luminescence (ATP depletion)

Row | IC50 | SMILES
1 | 3560 nM | O=C(CCC(=O)Nc1cccc([N+](=O)[O-])c1)NN=Cc1cccs1
2 | 297 nM | C[C@H](O)[C@@H]1C(=O)N2CCc3c([nH]c4ccccc34)[C@@H]2C[C@@H]1N(C)Cc1ccc2c(c1)OCO2
3 | 4200 nM | Cc1[nH]c2ccc(Br)cc2c(=O)c1CN1CCCCCC1
4 | 1300 nM | O=C(Cn1cnc2ccccc21)Nc1cccc([N+](=O)[O-])c1
5 | inactive | CCO[C@@H]1OC(C(=O)NCc2nc3ccccc3[nH]2)=C[C@H](c2ccc(Br)cc2)[C@H]1CCCO
6 | 3810 nM | COc1ccccc1-n1c(SCC(=O)Nc2ccc(Cl)cc2)nc(O)c(Cc2ccccc2)c1=O
7 | 6350 nM | CCOC(=O)N1CCC(Nc2c(Nc3ccc(F)cc3)c(=O)c2=O)CC1
8 | 1950 nM | O=C(C[C@H]1C(=O)N(Cc2ccccc2)C[C@@H]1c1ccc(Br)cc1)Nc1ccc(Br)cc1
9 | 3040 nM | O=C(NCc1nc2ccccc2[nH]1)C1=C[C@H](c2ccc3c(c2)OCO3)C[C@H](OCCCCO)O1
10 | 2850 nM | O=C(NNC(=O)c1ccc(-n2cncn2)c([N+](=O)[O-])c1)c1ccc(Cl)cc1
11 | 2410 nM | Brc1cnc2nc(SCc3nc4ccccc4[nH]3)[nH]c2c1
12 | 1060 nM | O=C(NCc1nc2ccccc2[nH]1)C1=C[C@@H](c2ccc(Br)cc2)C[C@@H](OCc2ccc(CO)cc2)O1
13 | 7540 nM | Clc1ccc(OCCSCc2nc3ccccc3[nH]2)cc1
14 | 1430 nM | O=C(CC=NOCc1ccc([N+](=O)[O-])cc1)Nc1ccc(Br)cc1
15 | 845 nM | CN(CC(=O)Nc1ccc(Cl)cc1)C(=O)c1ccc(-n2cncn2)c([N+](=O)[O-])c1
16 | 438 nM | O=C1CC(N(CCc2ccccc2)C(=S)Nc2ccccc2)C(=O)N1c1ccc(Br)cc1 (centres undefined)
17 | 755 nM | COc1ccc(CNC(=O)CSc2nnc3c(n2)[nH]c2ccc(F)cc23)cc1
18 | 586 nM | CN(Cc1cc(Cl)cc(Cl)c1)[C@H]1C[C@H]2c3[nH]c4ccccc4c3CCN2C(=O)[C@H]1CO
19 | 338 nM | CN1CC(=O)N2C(c3cccc([N+](=O)[O-])c3)c3[nH]c4ccccc4c3C[C@H]2C1=O (some centres undefined)
20 | 1080 nM | O=C(CC=NOCc1ccc([N+](=O)[O-])cc1)Nc1ccc(Cl)cc1
21 | 4110 nM | CCCCCCCCCC1NC(C(=O)O)Cc2c1[nH]c1ccccc21 (centres undefined)
22 | 172 nM | O=C(Cn1cc(C(=O)C(=O)N2CCOCC2)c2ccccc21)Nc1cccc(C(F)(F)F)c1
23 | 3390 nM | CC(C)(C)[C@@H]1C=C(C(=O)NCc2nc3ccccc3[nH]2)O[C@H](OCc2ccc(CO)cc2)C1
24 | 1580 nM | O=C(NCc1nc2ccccc2[nH]1)C1=C[C@H](c2ccc(Br)cc2)C[C@H](OCCCCO)O1
25 | 3200 nM | O=C(N/C(=C\c1cccnc1)c1nc2ccccc2[nH]1)c1cccc(Br)c1
26 | 603 nM | COc1ccc2[nH]c3nc(SCC(=O)Nc4ccc5c(c4)OCO5)nnc3c2c1
27 | 577 nM | CC(=O)c1ccc(N2CCN(C(=O)CCCn3c(=O)[nH]c4ccc(Br)cc4c3=O)CC2)cc1

Row | IC50 | SMILES
28 | 429 nM | Oc1c(Cl)cc(Cl)cc1CNc1nc2ccccc2[nH]1
29 | 474 nM | O=C1[C@@H]2Cc3c([nH]c4ccccc34)C(c3cccc([N+](=O)[O-])c3)N2C(=O)CN1CCCO (some centres undefined)
30 | 1200 nM | O=C(NNC(=O)c1cc(-c2ccc(Cl)c(Cl)c2)nc2ccccc12)Nc1ccccc1
31 | 1500 nM | O=C(NCc1nc2ccccc2[nH]1)C1=C[C@@H](C2CC2)C[C@@H](OCc2ccc(CO)cc2)O1
32 | 604 nM | Clc1ccc(-c2nnc(SCc3nc4ccccc4[nH]3)o2)c(Cl)c1
33 | 6860 nM | O=C(NCc1nc2ccccc2[nH]1)C1=C[C@H](c2ccccc2)C[C@H](OCc2ccc(CO)cc2)O1
34 | inactive | O=C1CC(SCc2nc3ccccc3[nH]2)C(=O)N1c1cccc(Cl)c1 (centres undefined)
35 | 739 nM | O=C(NCc1nc2ccccc2[nH]1)C1=C[C@H](c2csc3ccccc23)C[C@H](OCCCCO)O1
36 | 1590 nM | O=C(Nc1ccc(F)c(Cl)c1)C1CC(=O)n2c(nc3ccccc32)N1 (centres undefined)
37 | 44.1 nM | COc1cccc(NC(=O)CSc2nnc3c(n2)[nH]c2ccc(C)cc23)c1
38 | 674 nM | O=C(NCc1nc2ccccc2[nH]1)C1=C[C@@H](c2ccc(Br)cc2)C[C@@H](OCCCCO)O1
39 | 3070 nM | O=C(CC(=O)Nc1cccc(Cl)c1)NN=Cc1ccccc1
40 | 1580 nM | O=C(NCc1nc2ccccc2[nH]1)C1=C[C@@H](c2ccccc2)C[C@@H](OCc2ccc(CO)cc2)O1
41 | 641 nM | CC(C)OCCCN1CC(=O)N2C(c3cccc([N+](=O)[O-])c3)c3[nH]c4ccccc4c3C[C@H]2C1=O (some centres undefined)
42 | 2830 nM | CC(C)(C)[C@H]1C=C(C(=O)NCc2nc3ccccc3[nH]2)O[C@@H](OCc2ccc(CO)cc2)C1
43 | 2220 nM | O=C(CN1CCSC1=NCc1ccccc1)c1ccc(Cl)c(Cl)c1
44 | 5540 nM | COc1ccc(OCC(O)CNC(=O)Nc2ccc(Cl)cc2)cc1 (centres undefined)
45 | 148 nM | O=C(NCCc1nc2ccccc2[nH]1)c1ccc(Cl)c([N+](=O)[O-])c1
46 | 2400 nM | O=C(NCc1nc2ccccc2[nH]1)C1=C[C@H](c2ccc(Br)cc2)C[C@H](OCc2ccc(CO)cc2)O1
47 | 600 nM | COc1ccccc1NS(=O)(=O)c1cccc(NC(=O)Nc2ccccc2)c1
48 | 6500 nM | O=C(NCc1nc2ccccc2[nH]1)C1=C[C@H](C2CC2)C[C@H](OCc2ccc(CO)cc2)O1
49 | 1100 nM | O=C(NCc1nc2ccccc2[nH]1)C1=C[C@@H](c2ccc3c(c2)OCO3)C[C@@H](OCCCCO)O1
50 | 2330 nM | O=C(NCc1nc2ccccc2[nH]1)C1=C[C@@H](c2csc3ccccc23)C[C@@H](OCCCCO)O1
51 | 6240 nM | CCO[C@H]1OC(C(=O)NCc2nc3ccccc3[nH]2)=C[C@@H](c2ccc(Br)cc2)[C@@H]1CCCO
52 | 1040 nM | CC(=O)c1c[nH]c(C(=O)NCc2cccc(C(F)(F)F)c2)c1
53 | 3470 nM | Cc1ccc(NC(=O)CN(C)C(=O)CCSc2ccc(F)cc2)cc1
54 | 949 nM | CC(CC(=O)Nc1cccc(Br)c1)=NNC(=O)c1ccc(O)cc1O

From PubChem BioAssay AID686967 (The Scripps Research Institute Molecular Screening Center, 2013)
